Results from US5225528A, “Cyclic hexapeptide oxytocin antagonists” (priority 1990, dated 1993).
Where two headings read alike, the source gives them in different places. Numbered stars: 1 amine (or outer) side, 2 acyl side, 3 side chain; on linkers, the order of the positions; unused ones are H or OH. Square brackets hold non-standard residues; d marks the D form. Peptide text beside a SMILES is read from it. * marks the point of attachment. X2 = O=C(OCc1ccccc1)N1CCN([*:1])[C@H](C(=O)[*:2])C1; X4 = O=C([C@@H](Cc1cn(COCc2ccccc2)cn1)N[*:1])[*:2]; X10 = O=C(O)CN1CCN([*:1])[C@H](C(=O)[*:2])C1; dPiz(1,6-dehydro) = O=C(O)[C@H]1CCC=NN1; d2Nal = N[C@H](Cc1ccc2ccccc2c1)C(=O)O; X1 = O=C([C@H]1C=CCCN1[*:1])[*:2]; Pip(4-aza) = O=C(O)[C@@H]1CNCCN1; X6 = O=C([C@H]1CCCNN1[*:1])[*:2]; dNMeF = CN[C@H](Cc1ccccc1)C(=O)O; X7 = C[N+]12CCC(CC1)C(C(=O)*)C2; Pip = O=C(O)[C@@H]1CCCCN1; dPip = O=C(O)[C@H]1CCCCN1; Orn = NCCC[C@H](N)C(=O)O; dNMeA = CN[C@H](C)C(=O)O; Cbz = O=C(OCc1ccccc1)*; Boc = CC(C)(C)OC(=O)*

Key:
[1] = molecular target: T1, uterine OT receptors (Rattus norvegicus, UniProt P70536); experiment: [^3 H]OT binding to uterine OT receptors, crude membrane preparation of uteri from DES-treated rats
T1 construct: from tissue; host or cells: uterus of DES-treated rats, crude membranes
T1 sequence (P70536 1-388): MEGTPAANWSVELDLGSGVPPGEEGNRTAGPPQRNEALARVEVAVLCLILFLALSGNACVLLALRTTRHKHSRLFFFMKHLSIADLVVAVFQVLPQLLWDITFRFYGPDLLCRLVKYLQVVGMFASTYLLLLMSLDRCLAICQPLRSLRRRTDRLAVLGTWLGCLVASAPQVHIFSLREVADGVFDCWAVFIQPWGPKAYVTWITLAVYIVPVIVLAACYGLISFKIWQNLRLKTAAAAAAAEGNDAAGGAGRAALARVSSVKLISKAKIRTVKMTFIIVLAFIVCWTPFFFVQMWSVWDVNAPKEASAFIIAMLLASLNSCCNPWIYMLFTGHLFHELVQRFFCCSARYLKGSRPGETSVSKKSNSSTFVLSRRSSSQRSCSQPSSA
Description: Competition studies were conducted at equilibrium (60 minutes; 22° C.) using 1 nM [^3 H]OT in the following assay buffer: 50 mM Tris-HCl, 5 mM MgCl2, and 0.1% BSA, pH 7.4.

[2] = molecular target: T2, AVP-V1 sites (Rattus norvegicus, UniProt P30560); experiment: [^3 H]AVP binding to crude membrane preparation of male rat liver (AVP-V1 sites)
T2 construct: crude membrane preparation of male rat liver (AVP-V1 sites); from tissue; host or cells: male rat liver, crude membranes
T2 sequence (P30560 whole entry): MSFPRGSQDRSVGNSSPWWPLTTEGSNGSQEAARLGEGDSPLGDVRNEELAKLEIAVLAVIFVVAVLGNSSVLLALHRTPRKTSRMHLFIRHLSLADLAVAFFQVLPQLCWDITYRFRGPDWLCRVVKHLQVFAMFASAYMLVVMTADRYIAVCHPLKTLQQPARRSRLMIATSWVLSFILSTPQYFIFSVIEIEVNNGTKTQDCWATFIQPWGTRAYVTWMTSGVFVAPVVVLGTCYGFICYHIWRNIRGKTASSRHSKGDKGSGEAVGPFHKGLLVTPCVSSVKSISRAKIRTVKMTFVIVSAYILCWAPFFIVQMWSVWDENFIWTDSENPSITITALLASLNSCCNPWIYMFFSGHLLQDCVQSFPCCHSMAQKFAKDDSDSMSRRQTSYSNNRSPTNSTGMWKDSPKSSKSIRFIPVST
Description: (§1) Nonspecific binding (5-10% of the total binding) was determined using 10 μM unlabeled AVP, and the binding reaction was terminated by filtration as described above for the [^3 H]OT binding assay.

[3] = molecular target: T3, AVP-V2 sites (Rattus norvegicus, UniProt Q00788); experiment: [^3 H]AVP binding to crude membrane preparation of male rat kidney medulla (AVP-V2 sites); conditions: for inhibition at 10 µM: @ 10,000 (nM)
T3 construct: male rat liver (AVP-V1 sites) or kidney medulla (AVP-V2 sites); from tissue; host or cells: male rat kidney medulla, crude membranes
T3 sequence (Q00788 whole entry): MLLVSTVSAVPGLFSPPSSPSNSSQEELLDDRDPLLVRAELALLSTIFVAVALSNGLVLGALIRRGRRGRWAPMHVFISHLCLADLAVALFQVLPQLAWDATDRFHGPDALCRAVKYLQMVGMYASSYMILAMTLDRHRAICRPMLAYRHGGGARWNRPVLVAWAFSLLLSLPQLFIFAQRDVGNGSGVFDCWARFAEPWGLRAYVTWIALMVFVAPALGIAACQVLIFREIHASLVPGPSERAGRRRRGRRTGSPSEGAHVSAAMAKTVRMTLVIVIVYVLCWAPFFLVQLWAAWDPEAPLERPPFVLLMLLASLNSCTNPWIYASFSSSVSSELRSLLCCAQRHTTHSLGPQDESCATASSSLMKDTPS
Description: as §1

[4] = rat uterus membranes, 1 nM [^3 H]OT, read-out: Receptor Binding Results IC50 (nM) [^3 H]OT
[5] = Receptor Binding Results IC50 (nM) [^3 H]-AVP-V1
[6] = 0.5 h, read-out: [^3 H]-AVP-V2: percent inhibition of radioligand at the given concentration
[7] = rat kidney medulla membranes, 2 nM [^3 H]AVP, read-out: Receptor Binding Results IC50 (nM) [^3 H]-AVP-V2
[8] = Receptor Binding Results IC50 (nM) [^3 H]-AVP-V2
[9] = read-out: Receptor Binding Results IC50 (nM) [^3 H]-AVP-V1
[10] = Receptor Binding Results IC50 (nM) [^3 H]OT
[11] = read-out: Receptor Binding Results IC50 (nM) [^3 H]-AVP-V2

| Compound | IC50 [1, 4] | IC50 [2, 5] | IC50 [3, 7] | further results |
| --- | --- | --- | --- | --- |
| CC[C@H](C)[C@@H]1NC(=O)[C@@H](Cc2c[nH]c3ccccc23)NC(=O)[C@@H]2CCCN2C(=O)[C@@H](Cc2ccccc2)N(C)C(=O)[C@@H]2CN(C(=O)OCc3ccccc3)CCN2C(=O)[C@H]2CCC=NN2C1=O [Example 168, c-[D-Tryptophanyl-L-isoleucinyl-D-Δ-piperazyl-L-piperazin-2-yl(4-Cbz)-N-Me-D-phenylalanyl-L-prolyl]] (cyclo(I[dPiz(1,6-dehydro)][X2][dNMeF]P[dW])) | 34 nM | 10000 nM |  | inhibition at 1 µM ([3]; 0.5 h, @ 1,000 (nM), read-out: [^3 H]-AVP-V2: percent inhibition of radioligand at the given concentration): 54% |
| CC[C@H](C)[C@@H]1NC(=O)[C@@H](Cc2c[nH]c3ccccc23)NC(=O)[C@@H]2CCCN2C(=O)[C@@H](Cc2ccccc2)N(C)C(=O)[C@@H]2CN(CC(=O)O)CCN2C(=O)[C@H]2CCCCN2C1=O [Example 181, c-[D-Tryptophanyl-L-isoleucinyl-D-pipecolyl-L-piperazin-2-yl(4-carboxymethyl)-D-(N^α -Me)phenylalanyl-L-prolyl]] (cyclo(I[dPip][X10][dNMeF]P[dW])) | 100 nM | > 10000 nM |  | inhibition at 10 µM [3, 6]: 73% |
| CC[C@H](C)[C@@H]1NC(=O)[C@@H](Cc2c[nH]c3ccccc23)NC(=O)[C@@H]2CCCN2C(=O)[C@H](Cc2c[nH]cn2)NC(=O)[C@H](CCCNC(=O)OCc2ccccc2)NC(=O)[C@H]2CCCN2C1=O [Example 95, c-[D-Tryptophanyl-L-isoleucinyl-D-prolyl-L-ornithinyl(Cbz)-D-histidyl-L-prolyl]] (cyclo([dW]I[dP][Orn](Cbz)HP)) |  | > 10000 nM | > 10000 nM | inhibition at 0.1 µM ([1]; 1 h, @ 100 (nM), read-out: [^3 H]OT: percent inhibition of radioligand at the given concentration): 36% |
| CC[C@H](C)[C@@H]1NC(=O)[C@@H](Cc2ccccc2)NC(=O)[C@@H]2CCCN2C(=O)[C@@H](Cc2c[nH]cn2)NC(=O)[C@@H]2CN(C(=O)OCc3ccccc3)CCN2C(=O)[C@H]2CCCCN2C1=O [Example 81, c-[D-Phenylalanyl-L-isoleucinyl-D-pipecolyl-L-piperazin-2yl(4Cbz)-D-histidinyl-L-prolyl]] (cyclo(I[dPip][X2][dH]P[dF])) | 77 nM | > 1000 nM |  | IC50 [3, 8]: > 1000 nM |
| CN1C(=O)[C@@H]2CCCCN2C(=O)[C@H]2CCCCN2C(=O)[C@H](Cc2ccccc2)NC(=O)[C@@H](Cc2c[nH]c3ccccc23)NC(=O)[C@@H]2CCCN2C(=O)[C@H]1Cc1ccccc1 [Example 31, Cyclo[D-Tryptophanyl-L-phenylalanyl-D-pipecolyl-L-pipecolyl-D-(N^α -methyl)phenylalanyl-L-prolyl]] (cyclo(F[dPip][Pip][dNMeF]P[dW])) | 100 nM | > 10000 nM |  | IC50 [3, 8]: > 1000 nM |
| CC[C@H](C)[C@@H]1NC(=O)[C@@H](Cc2c[nH]c3ccccc23)NC(=O)[C@@H]2CCCN2C(=O)[C@@H](Cc2ccccc2)N(C)C(=O)[C@H](CCCCN)NC(=O)[C@H]2CCCCN2C1=O [Example 132, c-[D-Tryptophanyl-L-isoleucyl-D-pipecolyl-L-lysyl-D-(N-methyl)phenylalanyl-L-prolyl]] (cyclo(I[dPip]K[dNMeF]P[dW])) | 65 nM | > 10000 nM | 10000 nM |  |
| CC[C@H](C)[C@@H]1NC(=O)[C@@H](Cc2c[nH]c3ccccc23)NC(=O)[C@@H]2CCCN2C(=O)[C@@H](Cc2c[nH]c3ccccc23)NC(=O)[C@@H]2CNCCN2C(=O)[C@H]2CCCCN2C1=O [Example 88, c-[D-Trytophanyl-L-isoleucinyl-D-pipecolyl-L-piperazin-2-yl-D-tryptophanyl-L-prolyl]] (cyclo(I[dPip][Pip(4-aza)][dW]P[dW])) | 18 nM |  |  | IC50 [2, 9]: 5780 nM; IC50 [3, 8]: 1000 nM |
| CC[C@H](C)[C@@H]1NC(=O)[C@@H](Cc2ccccc2)NC(=O)[C@@H]2CCCN2C(=O)[C@@H](C)N(C)C(=O)[C@@H]2CCCCN2C(=O)[C@H]2CCCCN2C1=O [Example 5, Cyclo[D-phenyalanyl-L-isoleucyl-D-pipecolyl-L-pipecolyl-D-(N^α methyl)alanyl-L-prolyl]] (cyclo(I[dPip][Pip][dNMeA]P[dF])) |  | > 10000 nM | > 10000 nM | IC50 [1, 10]: 930 nM |
| CC[C@H](C)[C@@H]1NC(=O)[C@@H](Cc2ccccc2)NC(=O)[C@@H]2CCCN2C(=O)[C@@H](Cc2ccccc2)N(C)C(=O)[C@H](CC(N)=O)NC(=O)[C@H]2CCCCN2C1=O [Example 118, c-[D-Phenylalanyl-L-isoleucyl-D-pipecolyl-L-asparagyl-N-methyl-D-phenylalanyl-L-prolyl]] (cyclo(I[dPip]N[dNMeF]P[dF])) | 345 nM | > 10000 nM | 10000 nM |  |
| CC[C@H](C)[C@@H]1NC(=O)[C@@H](Cc2ccccc2)NC(=O)[C@@H]2CCCN2C(=O)[C@@H](Cc2ccccc2)NC(=O)[C@@H]2CN(C(=O)OCc3ccccc3)CCN2C(=O)[C@H]2CCCCN2C1=O [Example 77, c-[D-Phenylalanyl-L-isoleucinyl-D-pipecolyl-L-piperazin-2-yl(4-Cbz)-D-phenylalanyl-L-prolyl]] (cyclo(I[dPip][X2][dF]P[dF])) | 240 nM | 10000 nM |  | IC50 [3, 11]: 12300 nM |
| CC[C@H](C)[C@@H]1NC(=O)[C@@H](Cc2ccccc2)NC(=O)[C@@H]2CCCN2C(=O)[C@@H](Cc2cn(COCc3ccccc3)cn2)NC(=O)[C@@H]2CNCCN2C(=O)[C@H]2CCCCN2C1=O [Example 176, c-[D-Phenylalanyl-L-isoleucinyl-D-pipecolyl-L-piperazin-2-yl-D-histidinyl(BOM)-L-prolyl]] (cyclo([dF]I[dPip][Pip(4-aza)][X4]P)) |  | 10000 nM |  | inhibition at 1 µM ([1]; 1 h, @ 1,000 (nM), read-out: [^3 H]OT: percent inhibition of radioligand at the given concentration): 80%; inhibition at 10 µM [3, 6]: 81% |
| CC[C@H](C)[C@@H]1NC(=O)[C@@H](Cc2ccccc2)NC(=O)[C@@H]2CCCN2C(=O)[C@@H](Cc2ccccc2)N(C)C(=O)[C@@H]2CCCCN2C(=O)[C@H]2C=CCCN2C1=O [Example 24, Cyclo[D-phenylanyl-L-isoleucyl-D-(3,4-dehydro)-pipecolyl-L-pipecolyl-D-(N^α methyl)phenyalanyl-L-prolyl]] (cyclo(I[X1][Pip][dNMeF]P[dF])) | 640 nM | > 10000 nM | 10000 nM |  |
| CC[C@H](C)[C@@H]1NC(=O)[C@@H](Cc2c[nH]c3ccccc23)NC(=O)[C@@H]2CCCN2C(=O)[C@@H](Cc2c[nH]c3ccccc23)NC(=O)[C@H](CCCNC(=O)OCc2ccccc2)NC(=O)[C@H]2CCCCN2C1=O [Example 36, Cyclo[D-tryptophanyl-L-isoleucyl-D-pipecolyl-L-(carbobenzyloxy)ornithinyl-D-trytophanyl-L-prolyl]] (cyclo(I[dPip][Orn](Cbz)[dW]P[dW])) | > 100 nM | > 10000 nM | 10000 nM |  |
| CC[C@H](C)[C@@H]1NC(=O)[C@@H](Cc2c[nH]c3ccccc23)NC(=O)[C@@H]2CCCN2C(=O)[C@@H](Cc2ccccc2)N(C)C(=O)[C@@H]2CNCCN2C(=O)[C@H]2CCCCN2C1=O [Example 92, c-[D-Tryptophanyl-L-isoleucinyl-D-pipecolyl-L-piperazin-2-yl-D-(N^α -methyl)phenylalanyl-L-prolyl]] (cyclo(I[dPip][Pip(4-aza)][dNMeF]P[dW])) |  | > 10000 nM |  | IC50 [1, 10]: 7.7 nM; IC50 [3, 11]: 750 nM |
| CC[C@H](C)[C@@H]1NC(=O)[C@@H](Cc2c[nH]c3ccccc23)NC(=O)[C@@H]2CCCN2C(=O)[C@@H](Cc2c[nH]cn2)NC(=O)[C@H](CCCNC(=O)OC(C)(C)C)NC(=O)[C@H]2CCCNN2C1=O [Example 128, c-[D-Tryptophanyl-L-isoleucyl-D-piperazyl(N^δ -Boc)-L-or nithyl-D-histidyl-L-prolyl]] (cyclo(I[X6][Orn](Boc)[dH]P[dW])) | 118 nM | 10000 nM | 10000 nM |  |
| CC[C@H](C)[C@@H]1NC(=O)[C@@H](Cc2ccc3ccccc3c2)NC(=O)[C@@H]2CCCN2C(=O)[C@@H](Cc2ccccc2)N(C)C(=O)[C@H](CCCCNC(=O)C2C[N+]3(C)CCC2CC3)NC(=O)[C@H]2CCCCN2C1=O (stereo partly drawn) [Example 151, c-[D-2-Napthylalanyl-L-isoleucyl-D-pipecolyl-L-[N-(1-methyl-quinuclidinium-3-yl-carbonyl)]lysyl-D-(N-methyl)phenylalanyl-L-prolyl]] (cyclo(I[dPip]K(X7)[dNMeF]P[d2Nal])) | 10 nM |  |  | IC50 [2, 9]: 390 nM; IC50 [3]: 82 nM |
